We go through 6 substances from patent US20210329924A1, “METAL-BASED ANTIMICROBIAL COMPOSITION AND METHOD OF USING” (Microbonds Inc., priority 2020, published 2021).

One assay concerns E. Coli (OD600 1.5). Nature of the assay: Antimicrobial kill efficacy test on treated substrate (E. Coli). Type of assay: cell-based. To be noted: 1 hr; for Efficacy test Pass: 20 C. From the text: The 100000 ppm stock solution is subsequently diluted to the silver metal loading concentrations ranging from 3000 ppm down to 10 ppm, as shown in table 1 (the final usage concentration). The solutions are then applied onto a standard fabric substrate, such as white cotton textile and tested for various characteristics. The substrates, after being treated with the solution, are coated with standardized microbes, such as E. Coli or MRSA and tested for antimicrobial kill efficacy. The treated substrates are subjected to a wash test to determine if the silver metal still remains adhered to the fabric after multiple washes. For high silver metal ppm fabrics, it is easy to determine if the color of the stain fades or washes out over time. For low-ppm, non-stained items, the substrate is subjected to a digestion method to calculate the silver concentration per unit area after a number of washes to determine if the silver is remaining stable or is washing out.

The test system of a further assay is MRSA (Staphylococcus). Nature of the assay: Antimicrobial kill efficacy test on treated substrate (MRSA). Format: cell-based. The note with it: white cotton duvet, 60 C.-100 C., 1 hr.
Where [1] appears, read: 10 ppm silver metal loading, white cotton fabric.
Where [2] appears, read: 20 ppm silver metal loading, white cotton fabric.
The mark [3] stands for this setting: 100 ppm silver metal loading, white cotton fabric.
Where [4] appears, read: 500 ppm silver metal loading, white cotton fabric.
The mark [5] stands for this setting: 1000 ppm silver metal loading, white cotton fabric.

As for [Ag(NH3)2]-oxalate [Example 3], the “Efficacy test Pass” value is “No” in the assay with E. Coli (OD600 1.5) (setting [1]); “Yes” in the assay on E. Coli (OD600 1.5) (setting [2]); “Yes” in the assay with E. Coli (OD600 1.5) (setting [3]); “Yes” in the assay on E. Coli (OD600 1.5) (setting [4]); “Yes” in the assay on E. Coli (OD600 1.5) (setting [5]).
For [Ag(NH3)2]-fluoride [Example 4], the “Efficacy test Pass” value in the assay on E. Coli (OD600 1.5) (10 ppm silver metal loading, white Coolmax polyester fabric) is recorded as “No”; in the assay with E. Coli (OD600 1.5) (20 ppm silver metal loading, white Coolmax polyester fabric) it was “Yes”; with E. Coli (OD600 1.5) (100 ppm silver metal loading, white Coolmax polyester fabric) it was “Yes”; in the assay with E. Coli (OD600 1.5) (500 ppm silver metal loading, white Coolmax polyester fabric), “Yes”; with E. Coli (OD600 1.5) (1000 ppm silver metal loading, white Coolmax polyester fabric), “Yes”; in the assay with MRSA (Staphylococcus) (10 ppm copper metal loading), “Yes”. Further, the “Efficacy test Pass” value in the assay with MRSA (Staphylococcus) (20 ppm copper metal loading), in the assay on MRSA (Staphylococcus) (100 ppm copper metal loading), in the assay on MRSA (Staphylococcus) (500 ppm copper metal loading) and with MRSA (Staphylococcus) (1000 ppm copper metal loading) was “Yes” each time.
As to [Ag(NH3)2]-formate [Example 6], the “Efficacy test Pass” value is “No” in the assay with E. Coli (OD600 1.5) (10 ppm silver metal loading, Substrate = Dark Coolmax polyester fabric / Hand (Example 6: on skin)); “Yes” with E. Coli (OD600 1.5) (20 ppm silver metal loading, Substrate = Dark Coolmax polyester fabric / Hand (Example 6: on skin)); “Yes” in the assay on E. Coli (OD600 1.5) (100 ppm silver metal loading, Substrate = Dark Coolmax polyester fabric / Hand (Example 6: on skin)); “Yes” in the assay with E. Coli (OD600 1.5) (500 ppm silver metal loading, Substrate = Dark Coolmax polyester fabric / Hand (Example 6: on skin)); “Yes” in the assay on E. Coli (OD600 1.5) (1000 ppm silver metal loading, Substrate = Dark Coolmax polyester fabric / Hand (Example 6: on skin)).
Turning to [Cu(NH3)4(H2O)n]SO4 [Example 8], the “Efficacy test Pass” value with MRSA (Staphylococcus) (10 ppm zinc metal loading) was “No”; in the assay with MRSA (Staphylococcus) (20 ppm zinc metal loading), “Yes”; in the assay on MRSA (Staphylococcus) (100 ppm zinc metal loading), “Yes”; with MRSA (Staphylococcus) (500 ppm zinc metal loading) it was “Yes”; with MRSA (Staphylococcus) (1000 ppm zinc metal loading), “Yes”.
Take [Ag(NH3)2]-carbonate [Example 1]: the “Efficacy test Pass?” value is recorded as “No” in the assay on E. Coli (OD600 1.5) (setting [1]); “Yes” in the assay with E. Coli (OD600 1.5) (setting [2]); “Yes” in the assay on E. Coli (OD600 1.5) (setting [3]); “Yes” with E. Coli (OD600 1.5) (setting [4]); “Yes” in the assay with E. Coli (OD600 1.5) (setting [5]).
On to [Ag(NH3)2]-formate [Example 5], for which the “Efficacy test Pass” value in the assay on E. Coli (OD600 1.5) (10 ppm silver metal loading, dark Coolmax polyester fabric) was “No”; with E. Coli (OD600 1.5) (20 ppm silver metal loading, dark Coolmax polyester fabric) it was “Yes”; with E. Coli (OD600 1.5) (100 ppm silver metal loading, dark Coolmax polyester fabric) it was “Yes”; with E. Coli (OD600 1.5) (500 ppm silver metal loading, dark Coolmax polyester fabric) it was “Yes”; in the assay on E. Coli (OD600 1.5) (1000 ppm silver metal loading, dark Coolmax polyester fabric), “Yes”.
